Where no end group is shown, it is not given here. [ ]: non-standard residue; d: D form. pGlu = O=C1CC[C@@H](C(=O)O)N1
Key:
HIV-1IIIB = assay: HIV-1 antiviral assay in CEM-SS cells (MTS readout)
HCMV strain AD169 = assay: HCMV plaque formation assay in MRC-5 cells; details: for inhibition of HCMV plaque formation as compared to the virus control: 10 micrograms per ml, 7-10 days
[1] = tested on: hepatitis B virus (HBV) ayw strain; assay: HBV assay in HepG2-2.2.15 cells (TaqMan PCR of secreted HBV DNA); assay type: cell-based; details: 10 micrograms per ml; six days; combination 0.95 mole peptide 1 and 1.05 mole peptide 2
Excerpt: HepG2-2.2.15 is a stable cell line containing the hepatitis B virus (HBV) ayw strain genome (ATCC Cat. No. CRL-11997). Antiviral compounds blocking any late step of viral replication such as transcription, translation, pregenome encapsidation, reverse transcription, particle assembly and release can be identified and characterized using this cell line. In this assay, an active compound will reduce the production of secreted HBV from cells, measured by utilizing real time quantitative PCR (TaqMan) assay to directly and accurately measure HBV DNA copies. […] After 16-24 hours the confluent monolayer of HepG2-2.2.15 cells was washed and the medium was replaced with complete medium containing test peptides—10 micrograms per ml—in duplicate. Lamivudine (3TC) was used as the positive control, while media alone was added to the cells as a negative control (virus control). […] Six days following the initial administration of the peptides, the cell culture supernatants was collected, treated with pronase and DNAse and then used in a real-time quantitative TaqMan PCR assay. The PCR-amplified HBV DNA was detected in real-time by monitoring increases in fluorescence signals that result from the exonucleolytic degradation of a quenched fluorescence probe molecule that hybridizes to the amplified HBV DNA. […] Antiviral activity was calculated from the reduction in HBV DNA levels (% virus control). […]

murine spleen cells = assay: Th1/Th2 cytokine profiling assay (Ovalbumin restimulation); assay type: cell-based, Balb/c mice; details: 10 micrograms per ml, 72 hours
[2] = tested on: Primary Human endothelial cells (HUVEC); assay: Endothelial cell migration assay; assay type: cell-based; details: 10 micrograms per ml; 22 hours
HUVEC = assay: Endothelial tube formation assay; assay type: cell-based, human; details: 10 micrograms per ml; 20 hours
Experimental: The endothelial tube formation assay is based on the ability of endothelial cells to form three-dimensional capillary-like tubular structures when cultured on a gel of basement membrane extract. […] Pre-labeled HUVEC with Calcein AM were seeded in a 96-well culture plate coated with extracellular metrix (Chemicon international Cat. ECM625) and treated with test peptides—10 micrograms per ml—in full growth medium. Positive control wes vehicle only. The endothelial cells were allowed to form tubes foe 20 hours and were then examined under an inverted fluorescent microscope. Duplicate wells for each treatment were photographed and quantitatevily analyzed for an average tubule length using image analysis software ImageProPlus. Raw data were expressed as average tubule lengths in pixels ±standard deviation. Statistic p values were computed using the Student's t-test.

[3] = combination 0.95 mole peptide 1 and 1.05 mole peptide 2

| Molecule | antiviral activity of positive control compounds (HIV-1IIIB) | inhibition of HBV replication as compared to the virus control infection [1] | change of the production of IFN-γ (murine spleen cells; [3]) | change of the production of TNF-alpha (murine spleen cells; [3]) | inhibition of the migration of human endothelial cells [2] | inhibition of HCMV plaque formation as compared to the virus control (HCMV strain AD169) | further results |
| --- | --- | --- | --- | --- | --- | --- | --- |
| Cc1cn([C@H]2C[C@H](N=[N+]=[N-])[C@@H](CO)O2)c(=O)[nH]c1=O [AZT] | expected levels of antiviral activity | – | – | – | – | – | – |
| Nc1nc(O)c2ncn(COC(CO)CO)c2n1 [Ganciclovir, reference compound] | – | – | – | – | – | – | antiviral activity of positive control compound (HCMV strain AD169; positive control, MRC-5 cells, HCMV AD169): expected levels of antiviral activity |
| CC(C)(C)NC(=O)[C@@H]1CN(Cc2cccnc2)CCN1C[C@@H](O)C[C@@H](Cc1ccccc1)C(=O)N[C@H]1c2ccccc2C[C@H]1O [indinavir] | expected levels of antiviral activity | – | – | – | – | – | – |
| Ala-Arg-Leu-Asp-Val-Ala-Ser-Glu-Phe-Arg-Lys-Lys-Trp-Asn-Lys-Trp-Ala-Leu-Ser-Arg-NH2 (ARLDVASEFRKKWNKWALSR-NH2) [Peptide 1] | – | 10.0% | did not significantly change | did not significantly change | did not inhibit | did not inhibit | production of IL-2, induced by (murine spleen cells): 44.3%; production of IL-4, induced by (murine spleen cells): 43.2%; change of the production of IL-5 (murine spleen cells; [3]): did not significantly change |
| Pyr-Leu-Gly-Pro-Gln-Gly-Pro-Pro-His-Leu-Val-Ala-Asp-Pro-Ser-Lys-Lys-Gln-Gly-Pro-Trp-Leu-Glu-Glu-Glu-Glu-Glu-Ala-Tyr-Gly-Trp-Met-Asp-Phe-NH2 ([pGlu]LGPQGPPHLVADPSKKQGPWLEEEEEAYGWMDF-NH2; SMILES CSCC[C@H](NC(=O)[C@H](Cc1c[nH]c2ccccc12)NC(=O)CNC(=O)[C@H](Cc1ccc(O)cc1)NC(=O)[C@H](C)NC(=O)[C@H](CCC(=O)O)NC(=O)[C@H](CCC(=O)O)NC(=O)[C@H](CCC(=O)O)NC(=O)[C@H](CCC(=O)O)NC(=O)[C@H](CCC(=O)O)NC(=O)[C@H](CC(C)C)NC(=O)[C@H](Cc1c[nH]c2ccccc12)NC(=O)[C@@H]1CCCN1C(=O)CNC(=O)[C@H](CCC(N)=O)NC(=O)[C@H](CCCCN)NC(=O)[C@H](CCCCN)NC(=O)[C@H](CO)NC(=O)[C@@H]1CCCN1C(=O)[C@H](CC(=O)O)NC(=O)[C@H](C)NC(=O)[C@@H](NC(=O)[C@H](CC(C)C)NC(=O)[C@H](Cc1c[nH]cn1)NC(=O)[C@@H]1CCCN1C(=O)[C@@H]1CCCN1C(=O)CNC(=O)[C@H](CCC(N)=O)NC(=O)[C@@H]1CCCN1C(=O)CNC(=O)[C@H](CC(C)C)NC(=O)[C@@H]1CCC(=O)N1)C(C)C)C(=O)N[C@@H](CC(=O)O)C(=O)N[C@@H](Cc1ccccc1)C(N)=O) [Peptide 2] | – | 11.3% | did not significantly change | did not significantly change | 35% | did not inhibit | production of IL-2, suppressed by (murine spleen cells): 100%; production of IL-4, suppressed by (murine spleen cells): 100%; production of IL-5, deceased by (murine spleen cells): 44.5%; inhibition of the tube formation of human endothelial cells (HUVEC): 9% |

Source: patent US20100184674A1, “PROADRENOMEDULLIN ALONE OR IN COMBINATION WITH BIG GASTRIN I AS A THERAPEUTIC AGENT” (priority 2007, published 2010)
